Drawing on patent US9663496B2, “AMPK-activating heterocyclic compounds and methods for using the same” (Rigel Pharmaceuticals, Inc., priority 2010, dated 2017), this text covers EC50 for 30 molecules.

pEC50: −log10 of the molar value.

In this assay the target is AMPK. The experiment in a line: AMPK activation, enzyme-linked immunosorbent assay. It is filed as biochemical. The settings on record: EC50 for AMPK activation, ELISA. The essentials: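 Read-out: immunodetected kinase activation after compound exposure, run with commercial kit reagents.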
On the technique in general: In an ELISA, binding on a coated surface is turned into a signal by an enzyme label.
As to `COc1ccc(C(=O)C2CCN(c3ccc(C(=O)NC4CCN(Cc5ccc(C#N)cc5)CC4)nn3)CC2)cc1` [Compound 362, N-(1-(4-cyanobenzyl)piperidin-4-yl)-6-(4-(4-methoxybenzoyl)piperidin-1-yl)pyridazine-3-carboxamide], the pEC50 is greater than 6.30.
The same measure for `N#Cc1ccc(CN2CCC(NC(=O)c3ccc(C(=O)N4CCC(Oc5ccc([N+](=O)[O-])cc5)CC4)nc3)CC2)cc1` [Compound 363, N-(1-(4-cyanobenzyl)piperidin-4-yl)-6-(4-(4-nitrophenoxy)piperidine-1-carbonyl)nicotinamide]: greater than 6.30; for `N#Cc1ccc(CN2CCC(NC(=O)c3ccc(C(=O)N4CCC(Oc5ccc(N)cc5)CC4)nc3)CC2)cc1` [Compound 364, 6-(4-(4-aminophenoxy)piperidine-1-carbonyl)-N-(1-(4-cyanobenzyl)piperidin-4-yl)nicotinamide]: greater than 6.30.
The same measure for `N#Cc1ccc(CN2CCC(NC(=O)c3ccc(C(=O)N4CCC(C(=O)c5ccc(N6CCCC6)cc5)CC4)cn3)CC2)cc1` [Compound 365, N-(1-(4-cyanobenzyl)piperidin-4-yl)-5-(4-(4-(pyrrolidin-1-yl)benzoyl)piperidine-1-carbonyl)picolinamide]: greater than 6.30.
As to `CC(=O)Nc1ccc(OC2CCN(C(=O)c3ccc(C(=O)NC4CCN(Cc5ccc(C#N)cc5)CC4)cn3)CC2)cc1` [Compound 366, 6-(4-(4-acetamidophenoxy)piperidine-1-carbonyl)-N-(1-(4-cyanobenzyl)piperidin-4-yl)nicotinamide], the pEC50 is greater than 6.30.
As for `CS(=O)(=O)Nc1ccc(OC2CCN(C(=O)c3ccc(C(=O)NC4CCN(Cc5ccc(C#N)cc5)CC4)cn3)CC2)cc1` [Compound 367, N-(1-(4-cyanobenzyl)piperidin-4-yl)-6-(4-(4-(methylsulfonamido)phenoxy)piperidine-1-carbonyl)nicotinamide], the figure is less than 5.00.
As for `O=C(Nc1ccc(Oc2ccc(F)cc2)nc1)c1ccc(C(=O)N2CCC(C(=O)c3ccc(N4CCCC4)cc3)CC2)cn1` [Compound 368, N-(6-(4-fluorophenoxy)pyridin-3-yl)-5-(4-(4-(pyrrolidin-1-yl)benzoyl)piperidine-1-carbonyl)picolinamide], the figure is greater than 6.30.
As for `N#Cc1ccc(CN2CCC(NC(=O)c3ccc(C(=O)N4CCC(C(=O)c5ccc(C#N)cc5)CC4)cn3)CC2)cc1` [Compound 369, 5-(4-(4-cyanobenzoyl)piperidine-1-carbonyl)-N-(1-(4-cyanobenzyl)piperidin-4-yl)picolinamide], the figure is greater than 6.30; as for `CN(C)c1ccc(OC2CCN(C(=O)c3ccc(C(=O)NC4CCN(Cc5ccc(C#N)cc5)CC4)cn3)CC2)cc1` [Compound 370, N-(1-(4-cyanobenzyl)piperidin-4-yl)-6-(4-(4-(dimethylamino)phenoxy)piperidine-1-carbonyl)nicotinamide], greater than 6.30; as for `N#Cc1ccc(CN2CCC(NC(=O)c3ccc(C(=O)N4CCC(Oc5ccc(NC(=O)CCOCCOCCOCCOCCNC(=O)CCC[C@@H]6SC[C@@H]7NC(=O)N[C@@H]76)cc5)CC4)nc3)CC2)cc1` [Compound 371, N-(1-(4-cyanobenzyl)piperidin-4-yl)-6-(4-(4-(17-oxo-20-((3aS,4S,6aR)-2-oxohexahydro-1H-thieno[3,4-d]imidazol-4-yl)-4,7,10,13-tetraoxa-16-azaicosanamido)phenoxy)piperidine-1-carbonyl)nicotinamide], less than 5.00.
In turn, `CSc1ccc(C(=O)C2CCN(C(=O)c3ccc(C(=O)NC4CCN(Cc5ccc(C#N)cc5)CC4)nc3)CC2)cc1` [Compound 372, N-(1-(4-cyanobenzyl)piperidin-4-yl)-5-(4-(4-(methylthio)benzoyl)piperidine-1-carbonyl)picolinamide] gave a pEC50 greater than 6.30.
`C[S+]([O-])c1ccc(C(=O)C2CCN(C(=O)c3ccc(C(=O)NC4CC[N+]([O-])(Cc5ccc(C#N)cc5)CC4)nc3)CC2)cc1` (stereo not drawn) [Compound 374, 1-(4-cyanobenzyl)-4-(5-(4-(4-(methylsulfinyl)benzoyl)piperidine-1-carbonyl)picolinamido) piperidine 1-oxide] had a pEC50 of less than 5.00.
As for `N#Cc1ccc(CN2CCC(NC(=O)c3ccc(C(=O)N4CCC(C(=O)c5ccc(-n6cccn6)cc5)CC4)cn3)CC2)cc1` [Compound 375, 5-(4-(4-(1H-pyrazol-1-yl)benzoyl)piperidine-1-carbonyl)-N-(1-(4-cyanobenzyl)piperidin-4-yl)picolinamide], the figure is greater than 6.30; as for `N#Cc1ccc(CN2CCC(NC(=O)c3ccc(C(=O)N4CCC(C(=O)c5ccc(N6CCOCC6)cc5)CC4)cn3)CC2)cc1` [Compound 376, N-(1-(4-cyanobenzyl)piperidin-4-yl)-5-(4-(4-morpholinobenzoyl)piperidine-1-carbonyl)picolinamide], greater than 6.30; as for `N#Cc1ccc(CN2CCC(NC(=O)c3ccc(C(=O)N4CCC(C(=O)c5ccc(N6CCCC6)cc5)CC4)nc3)CC2)cc1` [Compound 377, N-(1-(4-cyanobenzyl)piperidin-4-yl)-6-(4-(4-(pyrrolidin-1-yl)benzoyl)piperidine-1-carbonyl)nicotinamide], greater than 6.30.
As for `COc1ccc(OC2CCN(C(=O)c3ccc(C(=O)NC4CCN(Cc5ccc(C#N)cc5)CC4)cn3)CC2)c([N+](=O)[O-])c1` [Compound 378, N-(1-(4-cyanobenzyl)piperidin-4-yl)-6-(4-(4-methoxy-2-nitrophenoxy)piperidine-1-carbonyl)nicotinamide], the negative logarithm of the EC50 (pEC50) is greater than 6.30.
As for `O=C(Nc1ccc(Oc2ccc(F)cc2)nc1)c1ccc(C(=O)N2CCC(C(=O)c3ccc(N4CCOCC4)cc3)CC2)cn1` [Compound 379, N-(6-(4-fluorophenoxy)pyridin-3-yl)-5-(4-(4-morpholinobenzoyl)piperidine-1-carbonyl)picolinamide], the figure is greater than 6.30; as for `CN1CCN(c2ccc(C(=O)C3CCN(C(=O)c4ccc(C(=O)NC5CCN(Cc6ccc(C#N)cc6)CC5)nc4)CC3)cc2)CC1` [Compound 380, N-(1-(4-cyanobenzyl)piperidin-4-yl)-5-(4-(4-(4-methylpiperazin-1-yl)benzoyl)piperidine-1-carbonyl)picolinamide], greater than 6.30; as for `O=C(NC1CCN(Cc2ccc(F)cc2)CC1)c1ccc(C(=O)N2CCC(C(=O)c3ccc(N4CCCC4)cc3)CC2)nc1` [Compound 381, N-(1-(4-fluorobenzyl)piperidin-4-yl)-6-(4-(4-(pyrrolidin-1-yl)benzoyl)piperidine-1-carbonyl)nicotinamide], greater than 6.30.
As for `O=C(Nc1ccc(Oc2ccc(F)cc2)nc1)c1ccc(C(=O)N2CCC(C(=O)c3ccc(N4CCCC4)cc3)CC2)nc1` [Compound 382, N-(6-(4-fluorophenoxy)pyridin-3-yl)-6-(4-(4-(pyrrolidin-1-yl)benzoyl)piperidine-1-carbonyl)nicotinamide], the figure is greater than 6.30; as for `COc1ccc(OC2CCN(C(=O)c3ccc(C(=O)NC4CCN(Cc5ccc(C#N)cc5)CC4)cn3)CC2)c(NC(C)=O)c1` [Compound 383, 6-(4-(2-acetamido-4-methoxyphenoxy)piperidine-1-carbonyl)-N-(1-(4-cyanobenzyl)piperidin-4-yl)nicotinamide], less than 5.00.
The same measure for `COc1ccc(OC2CCN(C(=O)c3ccc(C(=O)NC4CCN(Cc5ccc(C#N)cc5)CC4)cn3)CC2)c(N)c1` [Compound 384, 6-(4-(2-amino-4-methoxyphenoxy)piperidine-1-carbonyl)-N-(1-(4-cyanobenzyl)piperidin-4-yl)nicotinamide]: 6.00 to 6.30; for `COc1ccc(OC2CCN(C(=O)c3ccc(C(=O)NC4CCN(Cc5ccc(C#N)cc5)CC4)cn3)CC2)c(N(C)C)c1` [Compound 385, N-(1-(4-cyanobenzyl)piperidin-4-yl)-6-(4-(2-(dimethylamino)-4-methoxyphenoxy)piperidine-1-carbonyl)nicotinamide]: less than 5.00.
Regarding `N#Cc1ccc(CN2CCC(NC(=O)c3ccc(C(=O)NC4CCN(Cc5ccc(C#N)cc5)CC4)nn3)CC2)cc1` [Compound 386, N3,N6-bis(1-(4-cyanobenzyl)piperidin-4-yl)pyridazine-3,6-dicarboxamide], the negative logarithm of the EC50 (pEC50) was less than 5.00.
The same measure for `COc1ccc(C(=O)C2CCN(C(=O)c3ccc(C(=O)NC4CCN(Cc5ccc(C#N)cc5)CC4)nn3)CC2)cc1` [Compound 387, N-(1-(4-cyanobenzyl)piperidin-4-yl)-6-(4-(4-methoxybenzoyl)piperidine-1-carbonyl)pyridazine-3-carboxamide]: greater than 6.30.
`COc1ccc(OC2CCN(C(=O)c3ccc(C(=O)NC4CCN(Cc5ccc(C#N)cc5)CC4)cn3)CC2)c(NS(C)(=O)=O)c1` [Compound 389, N-(1-(4-cyanobenzyl)piperidin-4-yl)-6-(4-(4-methoxy-2-(methylsulfonamido)phenoxy)piperidine-1-carbonyl)nicotinamide]: the pEC50 was 5.30 to 6.00.
The same measure for `CC(=O)c1ccc(OC2CCN(C(=O)c3ccc(C(=O)NC4CCN(Cc5ccc(C#N)cc5)CC4)cn3)CC2)cc1` [Compound 390, 6-(4-(4-acetylphenoxy)piperidine-1-carbonyl)-N-(1-(4-cyanobenzyl)piperidin-4-yl)nicotinamide]: greater than 6.30; for `CC(=O)c1ccc(OC2CCN(C(=O)c3ccc(C(=O)NC4CCN(Cc5ccc(F)cc5)CC4)cn3)CC2)cc1` [Compound 391, 6-(4-(4-acetylphenoxy)piperidine-1-carbonyl)-N-(1-(4-fluorobenzyl)piperidin-4-yl)nicotinamide]: greater than 6.30.
The same measure for `O=C(NC1CCN(Cc2ccc(F)cc2)CC1)c1ccc(C(=O)N2CCC(C(=O)c3ccc(-n4cccn4)cc3)CC2)nc1` [Compound 392, 6-(4-(4-(1H-pyrazol-1-yl)benzoyl)piperidine-1-carbonyl)-N-(1-(4-fluorobenzyl)piperidin-4-yl)nicotinamide]: greater than 6.30.
With `N#Cc1ccc(CN2CCC(NC(=O)c3ccc(C(=O)N4CCC(C(=O)c5ccc(-n6cccn6)cc5)CC4)nc3)CC2)cc1` [Compound 393, 6-(4-(4-(1H-pyrazol-1-yl)benzoyl)piperidine-1-carbonyl)-N-(1-(4-cyanobenzyl)piperidin-4-yl)nicotinamide], the pEC50 was greater than 6.30.

As usually defined, the pEC50 is the negative decadic logarithm of the EC50, by convention in mol/L. A higher pEC50 goes with a low EC50.
